{"source": "patent US6051557A", "about": "“Methods of enhancing functioning of the upper gastrointestinal tract” (1149336 Ontario Inc., priority 1998, dated 2000)", "type_in_all_cases": "in vivo", "key": {"[1]": {"system": "mucosal epithelium and muscle layer of the esophagus", "assay": "BrdU cell proliferation in mouse esophagus", "conditions": "female CD1 mice, 2.5 μg s.c. twice daily, 50 hr period, vs PBS", "source_text": "In this experiment, the effect of GLP-2 on cell proliferation of the mucosal epithelium and muscle layer of the esophagus was examined.\nFemale CD1 mice (6 weeks of age, approx. 25 g, Charles River) were housed in plastic bottom, wire lid cages and maintained on a 12 hr light/dark cycle and allowed chow and water ad libitum. The mice were weighed using a Mettler PJ300 scale and randomly allocated to either the control group (phosphate buffer saline injection (\"PBS\")) or the treatment group (human [Gly^2 ]GLP-2 injection). Each control or treatment group consisted of 2 mice housed together in 1 cage.\nThe female CD1 mice were treated (subcutaneously) with either human [Gly^2 ]GLP-2 2.5 μg or PBS alone, twice daily (8 a.m. and 6 p.m.) for 2 days prior to the bromodeoxyuridine (\"BrdU\") injection (50 ug/g body weight, in 0.5 ml). The mice received a total of 5 injections of either human [Gly^2 ]GLP-2 or saline over the previous 50 hours. Mice were fasted 21 hours before sacrifice. The mice were sacrificed 2 hours after receiving the BrdU injection. Upon sacrifice, sections of distal esophagus (the last 2 cm of esophagus adjacent to the gastroduodenal junction) were taken for histological analysis.\nThe esophageal tissues were fixed in 10% buffered formalin for over 24 hours and then placed in 70% alcohol prior to processing. […]"}, "esophagus": {"system": "esophagus", "assay": "total protein content of mouse esophagus (modified Bradford assay)", "conditions": "female CD1 mice, 2.5 ug s.c. twice daily for 10 days, vs PBS", "protocol": "In this experiment, the effect of human [Gly^2 ]GLP-2 on protein synthesis in the mouse esophagus was examined. Female CD1 mice (6 weeks old) were housed and fed as described in Example 1. Two groups of mice (n=5 per group) were treated twice daily (subcutaneously) with either 0.5 ml PBS alone (control) or 2.5 ug in 0.5 ml PBS for 10 days. Following treatment, mice were anesthetized with CO2 and sacrificed for analysis. One (1) cm segments of esophagus tissue, between 2-4 cm proximal to the gastroduodenal junction, were harvested for analysis of total cellular protein. The 1 cm esophageal segments were placed in 1 ml of PBS and homogenized using a Polytron. Aliquots of the homogenate were taken for protein determination of protein content using the modified Bradford assay (BIORAD)."}, "stomach": {"system": "stomach", "assay": "stomach mass after oral administration in drinking water", "conditions": "female CD1 mice, approx. 100 μg per day in drinking water, 12 days, p<0.05 vs normal drinking water", "protocol": "In this experiment, the effect of GLP-2 on the stomach mass was examined. Female CD1 mice (6 weeks old) were treated with human [[…] ]GLP-2 by oral administration in drinking water. The drinking water contained 4.3 μg/ml of human [[…] ]GLP-2 and was prepared fresh daily. Each mouse received approximately 100 μg of human [[…] ]GLP-2 per day. Following 12 days of treatment the mice were fasted for 24 hours, anesthetized with CO2 and sacrificed. The stomach of each mouse was removed and weighed."}, "[2]": {"system": "indomethacin induced mucosal epithelial damage", "assay": "indomethacin induced gastroenterocolitis in mice", "conditions": "0.75 μg s.c. twice daily", "source_text": "In this experiment, the prophylactic and therepeutic effect of GLP-2 on indomethacin induced mucosal epithelial damage was studied.\nGLP-2 administration to mice and rats stimulates mucosal growth in both the small and large intestine via activation of crypt cell proliferation and inhibition of enterocyte apoptosis. To address the possibility that GLP-2 may be useful for the therapeutic and/or prophylactic treatment of mucosal epithelial damage, we have studied the use of a novel human GLP-2 analog, h[Gly^2 ]-GLP-2, in mice with experimental indomethacin induced gastroenterocolitis.\nSix to eight week old female CD1 mice (approximately 22-28 g, Charles River) were housed in plastic bottom, wire lid cages and maintained on a 12 hr light/dark cycle and allowed chow and water ad libitum throughout the study. The day prior to commencing the experiment, mice were weighed using a Mettler PJ300 scale and randomly allocated to a treatment group. Each treatment group consisted of 5 mice housed together. Subcutaneous injections of PBS or h[Gly^2 ]-GLP-2 peptide were given in the right hind quarter twice a day at 9 am and 7 pm. Injections started 4 days before indomethacin administration. Mice were fasted the night prior to receiving the first dose of indomethacin.\nMice were sacrificed between 9 am and 5 pm. […] Small and large bowel length were also measured. […]"}}}
{"smiles": "CC[C@H](C)[C@H](NC(=O)[C@H](Cc1ccccc1)NC(=O)[C@H](CC(=O)O)NC(=O)[C@H](CCCNC(=N)N)NC(=O)[C@H](C)NC(=O)[C@H](C)NC(=O)[C@H](CC(C)C)NC(=O)[C@H](CC(N)=O)NC(=O)[C@H](CC(=O)O)NC(=O)[C@H](CC(C)C)NC(=O)[C@@H](NC(=O)[C@@H](NC(=O)[C@H](CC(N)=O)NC(=O)[C@H](CCSC)NC(=O)[C@H](CCC(=O)O)NC(=O)[C@H](CC(=O)O)NC(=O)[C@H](CO)NC(=O)[C@H](Cc1ccccc1)NC(=O)[C@H](CO)NC(=O)CNC(=O)[C@H](CC(=O)O)NC(=O)CNC(=O)[C@@H](N)Cc1c[nH]cn1)[C@@H](C)O)[C@@H](C)CC)C(=O)N[C@@H](CC(N)=O)C(=O)N[C@@H](Cc1c[nH]c2ccccc12)C(=O)N[C@@H](CC(C)C)C(=O)N[C@H](C(=O)N[C@@H](CCC(N)=O)C(=O)N[C@H](C(=O)N[C@@H](CCCCN)C(=O)N[C@H](C(=O)N[C@H](C(=O)N[C@@H](CC(=O)O)C(=O)O)[C@@H](C)O)[C@@H](C)CC)[C@@H](C)O)[C@@H](C)CC", "note": "[human [Gly^2]GLP-2]", "values": [{"measurement": "cellular proliferation of the mucosal epithelium of the esophagus (number of BrDU-positive cells)", "setting": "[1]", "result": "significant increases"}, {"measurement": "cellular proliferation of the muscle layer of the esophagus (number of BrDU-positive cells)", "setting": "[1]", "result": "significant increases"}, {"measurement": "protein synthesis (total protein content) in esophagus tissue", "setting": "esophagus", "result": "increase"}, {"measurement": "weights of the stomachs", "setting": "stomach", "result": "significantly increase"}, {"measurement": "majority of parameters assessed, especially markers of epithelial damage/inflammation", "setting": "[2]; indomethacin-treated mice, vs saline", "result": "significantly improved"}, {"measurement": "survival", "setting": "[2]; treatment groups II-V, indomethacin 7 mg/kg, saline-treated controls 45-50%", "result": "75-95%"}]}
